Measurements taken from ChEMBL document CHEMBL1781871, “Discovery and SAR of novel mGluR5 non-competitive antagonists not based on an MPEP chemotype” (Bioorg Med Chem Lett, 2009).

Columns and labels:
[1] = target: T1, Metabotropic glutamate receptor 5 (Homo sapiens, UniProt P41594); experiment: Non-competitive antagonist activity at mGluR5; type: functional
Target sequence in this assay (P41594 whole entry): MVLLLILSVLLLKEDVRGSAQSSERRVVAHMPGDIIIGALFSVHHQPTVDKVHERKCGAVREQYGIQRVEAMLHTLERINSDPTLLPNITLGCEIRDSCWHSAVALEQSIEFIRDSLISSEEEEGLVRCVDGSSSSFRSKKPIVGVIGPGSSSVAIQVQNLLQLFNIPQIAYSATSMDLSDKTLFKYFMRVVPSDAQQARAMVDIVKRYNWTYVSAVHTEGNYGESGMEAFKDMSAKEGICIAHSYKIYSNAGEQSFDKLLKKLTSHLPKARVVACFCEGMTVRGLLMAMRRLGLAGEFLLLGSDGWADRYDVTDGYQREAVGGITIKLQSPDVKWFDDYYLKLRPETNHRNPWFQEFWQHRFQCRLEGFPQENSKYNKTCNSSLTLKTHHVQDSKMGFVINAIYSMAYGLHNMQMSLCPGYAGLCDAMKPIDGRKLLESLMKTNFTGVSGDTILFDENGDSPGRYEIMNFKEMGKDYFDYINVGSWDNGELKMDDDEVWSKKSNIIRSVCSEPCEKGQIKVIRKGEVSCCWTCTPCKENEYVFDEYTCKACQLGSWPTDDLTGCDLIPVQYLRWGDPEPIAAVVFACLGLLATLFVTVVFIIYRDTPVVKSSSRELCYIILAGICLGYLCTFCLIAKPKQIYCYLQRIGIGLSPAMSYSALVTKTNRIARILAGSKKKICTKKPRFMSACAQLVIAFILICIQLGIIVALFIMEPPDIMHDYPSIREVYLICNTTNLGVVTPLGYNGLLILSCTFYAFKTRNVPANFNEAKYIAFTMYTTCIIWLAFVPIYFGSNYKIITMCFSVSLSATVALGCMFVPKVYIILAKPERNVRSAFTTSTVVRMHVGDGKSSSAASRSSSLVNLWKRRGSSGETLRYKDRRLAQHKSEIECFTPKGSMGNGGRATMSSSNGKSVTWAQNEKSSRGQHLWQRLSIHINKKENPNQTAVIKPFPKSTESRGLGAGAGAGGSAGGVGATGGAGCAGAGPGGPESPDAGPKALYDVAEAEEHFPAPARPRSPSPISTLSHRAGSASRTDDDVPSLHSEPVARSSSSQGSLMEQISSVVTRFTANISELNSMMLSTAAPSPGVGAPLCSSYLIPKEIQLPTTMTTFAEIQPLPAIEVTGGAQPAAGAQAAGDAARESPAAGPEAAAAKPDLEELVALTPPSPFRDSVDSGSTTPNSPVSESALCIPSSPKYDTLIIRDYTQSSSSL

[2] = target: T1, Metabotropic glutamate receptor 5; experiment: Non-competitive antagonist activity at mGluR5 at 30 uM relative to glutamate; type: functional; set-up: scale not given: the % may be the effect or the level left
Target sequence in this assay (P41594 21-1212 limits assumed): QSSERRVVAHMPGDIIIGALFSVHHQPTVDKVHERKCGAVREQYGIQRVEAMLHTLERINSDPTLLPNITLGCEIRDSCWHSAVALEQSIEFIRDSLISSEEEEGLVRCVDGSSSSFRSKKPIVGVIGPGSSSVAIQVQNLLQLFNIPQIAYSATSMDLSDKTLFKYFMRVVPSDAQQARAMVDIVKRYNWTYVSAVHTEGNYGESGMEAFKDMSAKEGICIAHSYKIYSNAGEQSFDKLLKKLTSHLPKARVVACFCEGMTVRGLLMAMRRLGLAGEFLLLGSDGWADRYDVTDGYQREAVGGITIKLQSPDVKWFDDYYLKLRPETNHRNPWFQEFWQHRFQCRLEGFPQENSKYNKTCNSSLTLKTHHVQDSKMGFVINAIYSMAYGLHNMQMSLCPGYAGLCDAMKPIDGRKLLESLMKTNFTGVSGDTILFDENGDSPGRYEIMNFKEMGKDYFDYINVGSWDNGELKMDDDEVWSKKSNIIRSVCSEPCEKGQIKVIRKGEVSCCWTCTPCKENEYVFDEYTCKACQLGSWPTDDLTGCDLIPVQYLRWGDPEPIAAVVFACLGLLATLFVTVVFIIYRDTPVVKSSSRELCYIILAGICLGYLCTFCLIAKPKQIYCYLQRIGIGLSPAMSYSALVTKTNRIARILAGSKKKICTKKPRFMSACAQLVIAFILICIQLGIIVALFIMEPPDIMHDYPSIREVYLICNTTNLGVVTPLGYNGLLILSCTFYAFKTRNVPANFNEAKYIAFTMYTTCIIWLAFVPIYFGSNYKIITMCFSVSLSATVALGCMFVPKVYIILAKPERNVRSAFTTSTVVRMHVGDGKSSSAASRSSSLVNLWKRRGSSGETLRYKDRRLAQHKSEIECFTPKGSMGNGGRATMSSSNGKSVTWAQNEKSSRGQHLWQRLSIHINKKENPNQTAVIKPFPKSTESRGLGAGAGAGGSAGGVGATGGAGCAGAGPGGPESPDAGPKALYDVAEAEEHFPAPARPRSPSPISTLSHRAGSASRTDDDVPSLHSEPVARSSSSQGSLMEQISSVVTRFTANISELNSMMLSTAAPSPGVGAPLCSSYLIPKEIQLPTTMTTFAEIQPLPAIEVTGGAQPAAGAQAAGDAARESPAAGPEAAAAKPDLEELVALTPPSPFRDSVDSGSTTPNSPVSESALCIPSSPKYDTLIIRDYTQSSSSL

[3] = target: T1, Metabotropic glutamate receptor 5; experiment: Positive allosteric modulation of mGluR5
Target sequence in this assay (P41594 whole entry): as the sequence (P41594 whole entry) above

[4] = target: Metabotropic glutamate receptor 1 (Homo sapiens, UniProt Q13255); experiment: Inhibition of mGluR1
[5] = target: Metabotropic glutamate receptor 2 (Homo sapiens, UniProt Q14416); experiment: Inhibition of mGluR2
Sequence of Metabotropic glutamate receptor 2 (Q14416 whole entry): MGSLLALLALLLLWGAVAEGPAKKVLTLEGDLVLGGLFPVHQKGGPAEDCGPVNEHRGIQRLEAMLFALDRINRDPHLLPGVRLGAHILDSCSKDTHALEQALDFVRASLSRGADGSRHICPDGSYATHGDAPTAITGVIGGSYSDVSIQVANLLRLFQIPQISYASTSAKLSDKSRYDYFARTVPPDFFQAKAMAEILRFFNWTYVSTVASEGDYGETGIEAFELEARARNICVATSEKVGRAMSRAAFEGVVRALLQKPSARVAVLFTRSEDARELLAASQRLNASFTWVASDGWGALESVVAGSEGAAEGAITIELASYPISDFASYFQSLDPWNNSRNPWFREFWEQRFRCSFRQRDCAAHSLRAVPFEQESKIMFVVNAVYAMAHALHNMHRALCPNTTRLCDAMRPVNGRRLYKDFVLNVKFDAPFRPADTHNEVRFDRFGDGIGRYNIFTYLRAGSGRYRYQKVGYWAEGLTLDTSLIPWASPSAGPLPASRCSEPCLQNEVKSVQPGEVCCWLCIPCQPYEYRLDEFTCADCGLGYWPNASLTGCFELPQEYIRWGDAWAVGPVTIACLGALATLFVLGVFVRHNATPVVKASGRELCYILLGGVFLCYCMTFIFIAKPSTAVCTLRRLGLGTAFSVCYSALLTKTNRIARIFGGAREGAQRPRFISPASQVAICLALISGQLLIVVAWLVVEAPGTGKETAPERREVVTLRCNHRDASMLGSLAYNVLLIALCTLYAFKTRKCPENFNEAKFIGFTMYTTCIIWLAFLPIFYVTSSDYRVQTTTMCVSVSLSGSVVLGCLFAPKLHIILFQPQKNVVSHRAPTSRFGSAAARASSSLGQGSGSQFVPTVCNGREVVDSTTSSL

[6] = target: Metabotropic glutamate receptor 3 (Homo sapiens, UniProt Q14832); experiment: Inhibition of mGluR3
[7] = target: Metabotropic glutamate receptor 4 (Homo sapiens, UniProt Q14833); experiment: Inhibition of mGluR4
Sequence of Metabotropic glutamate receptor 4 (Q14833 whole entry): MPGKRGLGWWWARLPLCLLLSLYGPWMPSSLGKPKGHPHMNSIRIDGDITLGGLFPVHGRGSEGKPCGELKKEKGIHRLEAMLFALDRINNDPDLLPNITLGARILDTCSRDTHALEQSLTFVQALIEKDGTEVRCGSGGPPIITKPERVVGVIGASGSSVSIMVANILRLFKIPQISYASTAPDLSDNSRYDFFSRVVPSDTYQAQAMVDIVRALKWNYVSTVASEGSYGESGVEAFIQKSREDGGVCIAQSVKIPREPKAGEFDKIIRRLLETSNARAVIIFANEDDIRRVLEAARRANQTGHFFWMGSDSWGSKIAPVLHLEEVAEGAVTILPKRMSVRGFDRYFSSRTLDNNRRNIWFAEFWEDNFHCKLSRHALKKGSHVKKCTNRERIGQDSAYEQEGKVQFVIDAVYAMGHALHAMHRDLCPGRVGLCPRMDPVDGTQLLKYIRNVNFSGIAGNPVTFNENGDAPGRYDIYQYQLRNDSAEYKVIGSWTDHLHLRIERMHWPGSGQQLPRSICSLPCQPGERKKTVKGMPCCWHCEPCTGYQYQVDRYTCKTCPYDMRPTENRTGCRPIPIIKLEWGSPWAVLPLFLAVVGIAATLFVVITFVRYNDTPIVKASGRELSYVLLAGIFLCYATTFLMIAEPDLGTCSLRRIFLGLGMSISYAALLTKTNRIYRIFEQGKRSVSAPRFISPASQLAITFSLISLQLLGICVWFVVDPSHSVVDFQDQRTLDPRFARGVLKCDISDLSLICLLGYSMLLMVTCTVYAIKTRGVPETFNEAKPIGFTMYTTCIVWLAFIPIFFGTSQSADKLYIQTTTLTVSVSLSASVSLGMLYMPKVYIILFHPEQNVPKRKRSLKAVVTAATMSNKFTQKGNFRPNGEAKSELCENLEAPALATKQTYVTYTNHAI

[8] = target: Metabotropic glutamate receptor 7 (Homo sapiens, UniProt Q14831); experiment: Inhibition of mGluR7
[9] = target: Metabotropic glutamate receptor 8 (Homo sapiens, UniProt O00222); experiment: Inhibition of mGluR8
[10] = target: T1, Metabotropic glutamate receptor 5; experiment: Positive allosteric modulation of mGluR5 at 30 uM relative to glutamate
Target sequence in this assay (P41594 21-1212 limits assumed): as the sequence (P41594 21-1212 limits assumed) above

Q: How did the IC50 [1] turn out when `O=C(Cc1cccs1)N1CCCC2(CCCCC2)C1` was run?
A: The IC50 was over 10 µM.

Q: What about the Activity [2] of the same molecule?
A: The Activity was 52.1%.

Q: `O=C(N1CCN(c2ccccc2Cl)CC1)C12CC3CC(CC(C3)C1)C2` was tested. Which IC50 [1] did it give?
A: The IC50 was over 30 µM.

Q: What does the source list for `Cc1ccc(C(=O)N2CCCC3(CCCCC3)C2)cc1`?
A: IC50 [1]: > 10 µM; Activity [2]: 56.2%

Q: `Cc1cc(C)c2c(N)c(C(=O)c3ccccc3)oc2n1` was tested. Which IC50 [1] did it give?
A: The IC50 was over 10 µM.

Q: What about the Activity [2] of the same molecule?
A: Its Activity is 36%.

Q: With `O=C(C1CCCC1)N1CCCC2(CCCCC2)C1` as the molecule, how does the IC50 [1] read?
A: The IC50 was over 10 µM.

Q: What about the Activity [2] of the same molecule?
A: The Activity was 26.1%.

Q: How did the IC50 [1] turn out when `O=C(N1CCN(c2ccccn2)CC1)C12CC3CC(CC(C3)C1)C2` was run?
A: The IC50 was 0.99 µM.

Q: And the Activity [2]?
A: The Activity was 3.75%.

Q: How did the EC50 [3] turn out when `Cc1cc(=O)[nH]c2oc(C(=O)c3ccc(F)cc3)c(N)c12` was run?
A: Its EC50 is 6.1 µM.

Q: `O=C(N1CCN(c2cccnc2)CC1)C12CC3CC(CC(C3)C1)C2` was tested. Which IC50 [1] did it give?
A: Its IC50 is over 10 µM.

Q: And the Activity [2]?
A: Its Activity is 30.2%.

Q: Which Activity [2] does the source give for `O=C(C1CCC1)N1CCCC2(CCCCC2)C1` here?
A: The Activity was 1.12%.

Q: What about the IC50 [4] of the same molecule?
A: Its IC50 is over 30 µM.

Q: What about the IC50 [5] of the same molecule?
A: Its IC50 is over 30 µM.

Q: What about the IC50 [6] of the same molecule?
A: The IC50 was over 30 µM.

Q: What about the IC50 [7] of the same molecule?
A: Its IC50 is over 30 µM.

Q: And the IC50 [8]?
A: Its IC50 is over 30 µM.

Q: And the IC50 [9]?
A: Its IC50 is over 30 µM.

Q: For `Cc1cc(C(F)(F)F)c2c(N)c(C(=O)c3ccc(F)cc3)oc2n1`, which IC50 [1] is on record?
A: Its IC50 is 0.84 µM.

Q: And the Activity [2]?
A: Its Activity is 1.58%.

Q: For `Nc1c(C(=O)c2ccc(F)cc2)oc2ncc(Br)cc12`, which EC50 [3] is on record?
A: The EC50 was 7.6 µM.

Q: What about the Activity [10] of the same molecule?
A: The Activity was 73.5%.

Q: Which Activity [2] does the source give for `N#Cc1ccccc1N1CCN(C(=O)C23CC4CC(CC(C4)C2)C3)CC1` here?
A: The Activity was 3.68%.

Q: Which results are given for `O=C(c1cccs1)N1CCCC2(CCCCC2)C1`?
A: IC50 [1]: 1.18 µM; Activity [2]: 2.69%

Q: For `O=C(c1cnc2ccccc2n1)N1CCCC2(CCCCC2)C1`, which IC50 [1] is on record?
A: The IC50 was 5.02 µM.

Q: And the Activity [2]?
A: Its Activity is 2.39%.

Q: What does the source list for `O=C(C1CC1)N1CCCC2(CCCCC2)C1`?
A: IC50 [1]: > 10 µM; Activity [2]: 40.6%

Q: Which results are given for `O=C(N1CCN(c2nccs2)CC1)C12CC3CC(CC(C3)C1)C2`?
A: Activity [2]: 1.16%; IC50 [5]: > 30 µM; IC50 [6]: > 30 µM; IC50 [7]: > 30 µM; IC50 [8]: > 30 µM; IC50 [9]: > 30 µM

Q: For `O=C(c1ccco1)N1CCCC2(CCCCC2)C1`, which IC50 [1] is on record?
A: The IC50 was 1.54 µM.

Q: And the Activity [2]?
A: Its Activity is 2.64%.

Q: For `O=C(C1CCCCC1)N1CCCC2(CCCCC2)C1`, which IC50 [1] is on record?
A: Its IC50 is over 30 µM.

Q: How did the IC50 [1] turn out when `O=C(c1cccnc1)N1CCCC2(CCCCC2)C1` was run?
A: Its IC50 is over 30 µM.

Q: Which IC50 [1] does the source give for `O=C(N1CCN(c2ccncc2)CC1)C12CC3CC(CC(C3)C1)C2` here?
A: The IC50 was over 30 µM.

Q: Which Activity [2] does the source give for `O=C(CSc1ccccc1)N1CCCC2(CCCCC2)C1` here?
A: The Activity was 4.23%.

Q: With `Cc1cc(O)nc2oc(C(=O)c3ccc(F)cc3)c(N)c12` as the molecule, how does the Activity [10] read?
A: The Activity was 32.9%.

Q: For `Cc1cc(C)c2c(N)c(C(=O)c3ccc(F)cc3F)oc2n1`, which IC50 [1] is on record?
A: The IC50 was 9.3 µM.

Q: What about the Activity [2] of the same molecule?
A: Its Activity is 19.4%.

Q: With `COCc1c(Cl)c(C)nc2oc(C(=O)c3ccc(F)cc3)c(N)c12` as the molecule, how does the EC50 [3] read?
A: The EC50 was 6.5 µM.

Q: What about the Activity [10] of the same molecule?
A: Its Activity is 38.3%.

Q: Which IC50 [1] does the source give for `COc1ccccc1N1CCN(C(=O)C23CC4CC(CC(C4)C2)C3)CC1` here?
A: Its IC50 is over 10 µM.

Q: And the Activity [2]?
A: The Activity was 52%.
